Measurements as given in patent US10933111B2, “Treating dry eye disorders” (Boston Biotechnology US CORP, priority 2019, dated 2021).

Test system: patients with dry eye disorder and other eye symptoms
Test: Clinical usage of deacidified coconut oil for treating eye diseases or disorders (three patients)
Assay type: in vivo, human
Settings: before deacidified coconut oil
Protocol: The deacidified coconut oil was initially developed for treating the dry eye disorder. As the research continued, it was determined that the deacidified coconut oil can also be used to treat asthenopia, impaired vision, blurred vision, photophobia, astigmatism, and blepharitis. As shown in the following cases, the deacidified coconut oil was successfully administered to three patients with positive outcomes.
[…] […] […] […] […] In 2013-2014, the patient developed additional eye symptoms including astigmatism, blepharitis, anxiety and body weight loss (e.g., about 10 kilograms). In 2015, the patient used the deacidified coconut oil as described herein as eye drops, placed the thermal pad as described herein on the eyes, and took herb composition as described herein. […] In 2019, the symptoms of dry eye disorder including pain, dryness, redness, foreign matter sensation and insomnia were gone. In addition, symptoms such as repetitive visual fatigue, decreased vision, blurred vision, photophobia, sensitivity to wind, astigmatism, and eyelid inflammation disappeared. The patient's overall vision condition improved relative to that in 2015. The eyeglass prescription for both eyes decreased by 1.50-2.00.
The second patient, person. […]

## Recombinant Bovine Basic Fibroblast Growth Factor Eye Drops: Recombinant Bovine Basic Fibroblast Growth Factor Eye Drops
  effect of earlier treatment, second patient: No significant improvement was observed
